From paper PMC12246642 (iScience, 2025)
Where a SMILES comes first, the peptide text is derived from it. [ ]: non-standard residue; d: D form. The star is where a group is joined. Met(O2) = CS(=O)(=O)CC[C@H](N)C(=O)O; Ala(cPr) = N[C@@H](CC1CC1)C(=O)O; Cbz = O=C(OCc1ccccc1)*

Legend:
[1] = target: T1, SARS-CoV-2 Mpro (Severe acute respiratory syndrome coronavirus 2, UniProt P0DTD1); test: biochemical; type: biochemical; settings: for IC50 / Ki: Kinetics N = 2 (95% CI); for IC50: 4-parameter fit of the same data; for Ki: Morrison fit, 1 nM Mpro, 800 mM citrate buffer, 15 min preincubation
[2] = tested on: SARS-CoV-2; test: Anti-viral potency: inhibition of in vitro replication of SARS-CoV-2 in A549 cells; type: cell-based; settings: for EC50: Severe acute respiratory syndrome coronavirus 2, A549 cells, 10-point titration from 50 μM, triplicate
[3] = target: T1, SARS-CoV-2 Mpro; type: binding; settings: 40 μM 15N-labeled deuterated Mpro, 20 or 40 μM compound, SPR buffer
[4] = target: T1, SARS-CoV-2 Mpro; test: Covalent bond (adduct) formation kinetics by IR-MALDESI intact protein MS; type: binding; settings: for kobs (95 % CI) for adduct formation / kobs (95 % CI) Quenched, SPR: SPR buffer; for kobs (95 % CI) for adduct formation: Figure 2; for kobs (95 % CI) Quenched, SPR / kobs (95 % CI) Quenched, Citrate: quenched with 200 μM compound 9, 10 μM compound and Mpro, Figure S5; for kobs (95 % CI) Quenched, Citrate: citrate buffer, only estimated for lack of early timepoints
[5] = target: T1, SARS-CoV-2 Mpro; type: binding; settings: 300 μM 13C-labeled compound, 100 μM Mpro, SPR buffer; for covalent adduct formation with Cys145 seen by 13C NMR: up to 3 h (compound 1) or 6 h (compound 5)
[6] = type: physicochemical; settings: 500 μM, monitored for 10 h at 16-min intervals
[7] = first determination, 4-parameter IC50 fit
[8] = second determination, 4-parameter IC50 fit

SMILES | Hill slope [1, 7] | EC50 [2] [µM] | Hill slope [1, 8] | exchange regime of binding on the NMR timescale [3] | kobs (95 % CI) for adduct formation ([4]; Ratio Cmpd:Mpro 1:1) | kobs (95 % CI) for adduct formation ([4]; Ratio Cmpd:Mpro 2:1) | kobs (95 % CI) for adduct formation ([4]; Ratio Cmpd:Mpro 5:1) | kobs (95 % CI) Quenched, SPR [4] [Min -1] | kobs (95 % CI) Quenched, Citrate [4] [Min -1] | covalent adduct formation with Cys145 seen by 13C NMR [5] | decrease of cellular EC50 versus the Ki determined in citrate buffer ([2]; EC50 in A549 cells versus Ki) [fold] | epimerization at P1: αH resonance in D2O SPR buffer [6] | Hill slope ([1]; 4-parameter IC50 refit) | non-covalently bound form seen by 13C NMR ([5]; extended incubation) | IC50 ([1]; first determination) [µM] | Ki ([1]; first determination) [µM] | IC50 ([1]; second determination) [µM] | Ki ([1]; second determination) [µM]
COc1cccc2[nH]c(C(=O)N[C@@H](CC3CC3)C(=O)N[C@H](C#N)CCS(C)(=O)=O)cc12 [Compound 7, N-((S)-1-(((S)-1-cyano-3-(methylsulfonyl)propyl)amino)-3-cyclopropyl-1-oxopropan-2-yl)-4-methoxy-1H-indole-2-carboxamide] | 0.6 | > 50 |  |  |  |  |  |  |  |  |  |  |  |  |  |  |  | 
COc1cccc2[nH]c(C(=O)N[C@@H](CC3CC3)C(=O)N[C@H](C#N)C[C@@H]3CCNC3=O)cc12 [Compound 5, N-((S)-1-(((S)-1-cyano-2-((S)-2-oxopyrrolidin-3-yl)ethyl)amino)-3-cyclopropyl-1-oxopropan-2-yl)-4-methoxy-1H-indole-2-carboxamide] | 1.0 | 3.2 | 1 | fast exchange regime | 0.33 (0.2393 to 0.4596) | 0.40 (0.2513 to 0.6949) | 1.6 (0.7658 to 3.045) | 1.2 | 0.47 | no new peaks emerged to suggest thioimidate formation | 760 |  |  |  |  |  |  | 
COc1cccc2[nH]c(C(=O)N[C@@H](CC3CC3)C(=O)N[C@H](C=O)C[C@@H]3CCNC3=O)cc12 [Compound 1, N-((S)-3-cyclopropyl-1-oxo-1-(((S)-1-oxo-3-((S)-2-oxopyrrolidin-3-yl)propan-2-yl)amino)propan-2-yl)-4-methoxy-1H-indole-2-carboxamide] | 3.1 | 6.2 | 2.0 | slow exchange regime | 0.11 (0.04919 to 0.2232) | 0.34 (0.1598 to 0.8874) | 2.0 (1.597 to 2.492) | 0.13 | 0.31 | thiohemiacetal formation |  | no change in intensity | greater than 1 | stably bound to Mpro non-covalently |  |  |  | 
CS(=O)(=O)CC[C@@H](C#N)NC(=O)[C@H](CC1CC1)NC(=O)OCc1ccccc1 [Compound 8, benzyl ((S)-1-(((S)-1-cyano-3-(methylsulfonyl)propyl)amino)-3-cyclopropyl-1-oxopropan-2-yl)carbamate] |  |  |  |  |  |  |  |  |  |  |  |  |  |  | > 12.5 | > 12.5 | > 12.5 | > 12.5
O=C[C@H](C[C@@H]1CCNC1=O)NC(=O)[C@H](CC1CC1)NC(=O)OCc1ccccc1 [Compound 2, benzyl ((S)-3-cyclopropyl-1-oxo-1-(((S)-1-oxo-3-((S)-2-oxopyrrolidin-3-yl)propan-2-yl)amino)propan-2-yl)carbamate] | 2.7 | 3.3 | 2.5 |  |  |  |  | 0.49 | 0.85 |  |  |  | greater than 1 |  |  |  |  | 
CS(=O)(=O)CC[C@@H](C=O)NC(=O)[C@H](CC1CC1)NC(=O)OCc1ccccc1 [Compound 4, benzyl ((S)-3-cyclopropyl-1-(((S)-4-(methylsulfonyl)-1-oxobutan-2-yl)amino)-1-oxopropan-2-yl)carbamate] (Cbz-[Ala(cPr)]-[Met(O2)]-aldehyde) | 1.0 | 22 | 1.0 |  |  |  |  | 0.29 | 0.35 |  |  |  |  |  |  |  |  | 
COc1cccc2[nH]c(C(=O)N[C@@H](CC3CC3)C(=O)N[C@H](C=O)CCS(C)(=O)=O)cc12 [Compound 3, N-((S)-3-cyclopropyl-1-(((S)-4-(methylsulfonyl)-1-oxobutan-2-yl)amino)-1-oxopropan-2-yl)-4-methoxy-1H-indole-2-carboxamide] | 1.5 |  | 1.5 |  |  |  |  | 0.18 | 0.30 |  |  |  | 1.5 |  |  |  |  | 
N#C[C@H](C[C@@H]1CCNC1=O)NC(=O)[C@H](CC1CC1)NC(=O)OCc1ccccc1 [Compound 6, benzyl ((S)-1-(((S)-1-cyano-2-((S)-2-oxopyrrolidin-3-yl)ethyl)amino)-3-cyclopropyl-1-oxopropan-2-yl)carbamate] | 1.1 | 13 | 1.0 |  |  |  |  | 0.08 | 0.34 |  |  |  |  |  |  |  |  | 
